This note sets out measurements from US20160311788A1, “Antifouling Compounds And Use Thereof” (National University of Singapore, priority 2008, published 2016).

For test [1], the system named is marine bacteria strain S16. Description: disc inhibition assay, strain S16. It counts as cell-based, Pseudoalteromonas piscicida. To be noted: for zone of inhibition at 50 µg/disc: Pseudoalteromonas piscicida, S16, 24 h. The method, then: (§1) The disc inhibition assay was used. This assay is a conventional method routinely used for screening antibacterial compounds to determine degree of susceptibility to antibacterial compounds. The diameter of the zone of inhibition is proportional to the degree of susceptibility of the bacterial strain. The compounds were tested against 13 strains of marine bacteria isolated from Singapore coastal waters.
(§2) 13 strains of marine bacteria were isolated from fouling communities located in the coastal waters around Singapore. These were characterized in earlier studies and reported in Teo et al. (U.S. patent application Ser. No. 11/265,833) and Choong et al (in prep). In addition, four reference bacterial strains were added tested: Escherichia coli (Strain K12, ATCC 15222), E. coli (strain DH5a), Pseudomonas aeruginosa (strain LMG 12228; ATCC 15692) and P. putida (strain KT2440; ATCC 47054). All the bacteria were also tested against five antibiotics: ampicillin (AMP), tetracycline (TETR), erythromycin (ERY), chloramphenicol (CHL) and streptomycin (STREP).
(§3) Disks comprising the compounds to be tested were prepared as follows. The antibacterial assay, the pure compounds were made up to a concentration of 2 mgml^−1 in DMSO. 25 μl of the stock was pipetted onto each 6 mm sterile disc (Macherey-Nagel #484000) to obtain 50 μg of compound per disc. Equivalent volume of DMSO was used inoculated for the control.
(§4) For all disk inhibition assays, bacterial cultures were grown in marine broth (Pronadisa #1217.00). Sterile swabs dipped into the cultures were used to inoculate Marine Agar plates with a bacterial lawn by smearing the culture over the surface. After inoculating the plates, discs with antibiotics, pharmaceuticals or control blanks were placed on each plate. Each concentration of antibiotic or pharmaceutical was tested with two replicates. After the disks were placed on the agar surface, plates were incubated overnight in the dark at 35° C. After incubation, plates were examined for zones of inhibition or clearing around control and treated disks. The diameter of any zone of clearing or inhibition was measured using Vernier calipers. There were two replicates per treatment, and the average was taken.

The test system of test [2] is marine bacteria strain S10. Description: disc inhibition assay, strain S10. The class given is cell-based, Halobacillus trueperi. To be noted: strain 10, 50 μg of compound per disc; for zone of inhibition at 50 µg/disc: Halobacillus trueperi, S10, 24 h, read-out: zone of inhibition. The protocol: as §1, §2, §3, §4
Test [3] has as its system marine bacteria strain S29. Description: disc inhibition assay, strain S29. It counts as cell-based, Bacillus hwajinpoensis. To be noted: strain 29, 50 μg of compound per disc; for zone of inhibition at 50 µg/disc: Guptibacillus hwajinpoensis, S29, 24 h, read-out: zone of inhibition. The method, then: as §1, §2, §3, §4
For test [4], the system named is marine bacteria strain S17. Description: disc inhibition assay, strain S17. The class given is cell-based, Gordonia terrae. To be noted: strain 17, 50 μg of compound per disc; for zone of inhibition at 50 µg/disc: Gordonia terrae, S17, 24 h, read-out: zone of inhibition. The protocol: as §1, §2, §3, §4
Test [5] has as its system marine bacteria strain S4. Description: disc inhibition assay, strain S4. It counts as cell-based, Bacillus algicola. The following applies: strain 4, 50 μg of compound per disc; for zone of inhibition at 50 µg/disc: Guptibacillus algicola, S4, 24 h, read-out: zone of inhibition. The protocol: as §1, §2, §3, §4
Test [6] deals with marine bacteria strain S28. The experiment in a line: disc inhibition assay, strain S28. The class given is cell-based, Arthrobacter protophormial. To be noted: strain 28, 50 μg of compound per disc; for zone of inhibition at 50 µg/disc: Arthrobacter, S28, 24 h, read-out: zone of inhibition. The protocol: as §1, §2, §3, §4
Test [7] relates to marine bacteria strain S9. Description: disc inhibition assay, strain S9. It counts as cell-based, Bacillus algicola. The following applies: strain 9, 50 μg of compound per disc; for zone of inhibition at 50 µg/disc: Guptibacillus algicola, S9, 24 h, read-out: zone of inhibition. The method, then: as §1, §2, §3, §4
The test system of test [8] is marine bacteria strain S30. The experiment in a line: disc inhibition assay, strain S30. It counts as cell-based, Bacillus borophilicus. The following applies: strain 30, 50 μg of compound per disc; for zone of inhibition at 50 µg/disc: Bacillus, S30, 24 h, read-out: zone of inhibition. The protocol:
as §1, §2, §3, §4

Test [9] relates to marine bacteria strain S14. Description: disc inhibition assay, strain S14. It counts as cell-based, Vibrio probioticus. The following applies: strain 14, 50 μg of compound per disc. The protocol:
as §1, §2
(§5) Disks comprising the compounds to be tested were prepared as follows. The antibacterial assay, the pure compounds were made up to a concentration of 2 mgml^−1 in DMSO. […] Equivalent volume of DMSO was used inoculated for the control.
as §4

The subject of test [10] is cyprids of Balanus amphitrite. Description: barnacle settlement assay. The class given is in vivo. The following applies: Amphibalanus amphitrite, 24 h, Table 3(a); concentration that caused 50% settlement inhibition, 24 hours, cyprids; read-out: ED50 (the source's name). The method, then: Pure compounds were suspended in DMSO and sonicated to obtain a stock solution of 50 mg ml^−1 in DMSO. This stock solution is stored at −20° C. in 4 ml amber screw cap vials. For the bioassays, a small volume of stock solution was added to 1 μm filtered seawater in a glass scintillation vial. This suspension was then sonicated around 10 minutes. Serial dilutions were generated to the required range of concentrations. Serial dilution of the equivalent amounts of DMSO in seawater was used as the control.
The barnacle bioassay method used follows from the method first introduced by Rittschof et al. (1992), and subsequently by other authors (Willemsen et al., 1998). This method is now standard practice for many antifouling screening of novel compounds.
Barnacle settlement assays were based on methodology from Rittschof et al. (1992). Barnacle larvae from field-collected adults were reared on an algal mixture of 1:1 v/v of Tetraselmis suecica and Chaetoceros muelleri at 25° C., at approximately 5×10^5 cells per ml density. On this regime, larvae metamorphose to cyprids in 5 days. These cyprids were aged at 4° C. for 2-3 days, and 45-70% settlement after 24 hours (Willemsen et al., 1998).
Settlement tests were conducted in 7 ml neutral glass vials (Samco® T1 03N1) 34 mm by 23 mm diameter, with 20-40 cyprids per well. Test solutions were made up to twice the required final concentration. 0.5 ml of test solution was added into each well, and cyprids were transferred into each well in 0.5 ml of seawater. Assays were done in triplicate. As before, there were two sets of controls, a blank control consisting 3 tubes of seawater only, and DMSO control consisting of the equivalent dilution series with DMSO without compound. After 24 hours, larvae that had attached and metamorphosed were enumerated and the result expressed as percentage settlement. Larvae not attached were scored as not settled. The assays were repeated and the concentration that caused 50% settlement inhibition (ED50) was determined by pro bit analysis using a basic computer program (Lieberman, 1983), or by estimation from graphed data.

Test [11] relates to marine bacteria strain S3. The experiment in a line: disc inhibition assay, strain S3. The following applies: strain 3, 50 μg of compound per disc; for zone of inhibition at 50 µg/disc: Qipengyuania aquimaris, S3, 24 h, read-out: zone of inhibition. It counts as cell-based, Erythrobacter aquimaris. The method, then: as §1, §2, §3, §4
Test [12] concerns marine bacteria strain S1. The experiment in a line: disc inhibition assay, strain S1. To be noted: strain 1, 50 μg of compound per disc. The class given is cell-based, Rhodovulum iodosum. The protocol:
as §1, §2, §3, §4

In test [13] the test system is marine bacteria strain S18. The experiment in a line: disc inhibition assay, strain S18. To be noted: strain 18, 50 μg of compound per disc; for zone of inhibition at 50 µg/disc: Microbacterium esteraromaticum, S18, 24 h, read-out: zone of inhibition. The class given is cell-based, Microbacterium esteraromaticum. The method, then:
as §1, §2, §5, §4

The subject of test [14] is marine bacteria strain S27. Description: disc inhibition assay, strain S27. The class given is cell-based, Tenacibaculum lutimaris. The following applies: strain 27, 50 μg of compound per disc; for zone of inhibition at 50 µg/disc: Tenacibaculum lutimaris, S27, 24 h, read-out: zone of inhibition. The method, then:
as §1, §2, §3, §4

[15] abbreviates: strain 16, 50 μg of compound per disc.

Each structure is given as a SMILES string. Where two headings read alike, the source gives them in different places.

In the case of `CN1CCC(O)(c2ccc(Cl)cc2)CC1` [Compound 4.6], the zone of inhibition at 50 µg/disc in [1] and in [7] was 2 to 5 mm each time. For the same molecule, the zone of inhibition result in test [2], in test [3], in [4], in test [5], in [6] and in test [8] was “−” each time. Also, the zone of inhibition result in test [9], in test [11], in [12], in [13] and in [14] was “−” throughout. Moreover, in [10], the IC50 is under 10 µg/mL.

In the case of `CCCCCC(=O)N(C)C` [Compound 11.2], the zone of inhibition (usually the extent of the growth-free halo in a diffusion test) at 50 µg/disc in test [1] (strain 16, 50 μg of compound per disc, read-out: zone of inhibition) is 2 to 5 mm. For the same molecule, in test [1] (strain S16), the “antibacterial activity in words” value was “susceptible”. The zone of inhibition entry in [2], in test [3], in test [4], in test [5], in test [6] and in [7] was “−” in each case. The zone of inhibition result in test [8], in test [9], in test [11], in test [12], in test [13] and in [14] was “−” in each case.

In the case of `CCCCC(C(=O)N1CCCCC1)c1ccccc1` (stereo not drawn) [Compound 12.1, 2-Phenyl-1-(piperidin-1-yl)hexan-1-one], the zone of inhibition result in test [1] (setting [15]), in test [9] and in test [12] was “−” in each case. Moreover, the zone of inhibition at 50 µg/disc in [2], in test [3], in test [4], in test [5], in test [6] and in test [7] was 2 to 5 mm in each case. Besides, the zone of inhibition at 50 µg/disc lay within 2 to 5 mm in [8], 5 to 10 mm in test [11], 2 to 5 mm in [13] and 2 to 5 mm in test [14].

Take `C=CCCCCC(C(=O)N1CCCCC1)c1ccccc1` (stereo not drawn) [Compound 12.4]: the zone of inhibition result in test [1] (setting [15]), in test [6], in test [8], in test [9] and in [12] was “−” in each case. The zone of inhibition at 50 µg/disc in test [2] was 2 to 5 mm; in test [3] it was 2 to 5 mm; in test [4], 2 to 5 mm; in [5] it was 2 to 5 mm; in [7] it was 2 to 5 mm; in test [11], over 10 mm. Besides, the figures for the zone of inhibition at 50 µg/disc in test [13] and in test [14] were 5 to 10 mm and 2 to 5 mm, respectively.

Take `O=C(C(CCCCC(O)CO)c1ccccc1)N1CCCCC1` (stereo not drawn) [Compound 12.5]: the zone of inhibition entry in [1] (setting [15]), in [2], in test [4], in test [5], in [6] and in test [7] was “−” in each case. For the same molecule, the zone of inhibition entry in [8], in [9], in test [11], in [12], in [13] and in test [14] was “−” throughout. Also, the zone of inhibition at 50 µg/disc in test [3] lay in the range of 2 to 5 mm.

Consider `CCCCC(CCCCC(O)CO)C(=O)N1CCCCC1` (stereo not drawn) [Compound 12.6], for which the zone of inhibition entry in test [1] (setting [15]), in [2], in test [3], in [4], in test [5] and in test [6] was “−” each time. Moreover, the zone of inhibition entry in [7], in test [8], in [9], in test [11], in test [12] and in test [13] was “−” each time. The zone of inhibition result in test [14] was “−”.

For `C=CCCCCC(CCCC)C(=O)N1CCCCC1` (stereo not drawn) [Compound 12.7], the zone of inhibition entry in [1] (setting [15]) and in test [9] was “−” in each case. Also, the zone of inhibition at 50 µg/disc lay in the range of 5 to 10 mm in [2]; 2 to 5 mm in [3]; 5 to 10 mm in test [4]; 5 to 10 mm in [5]; 2 to 5 mm in [6]; 5 to 10 mm in test [7]. Further, the zone of inhibition at 50 µg/disc in test [8] is 2 to 5 mm; in [11], over 10 mm; in test [12] (Rhodovulum iodosum, S1, read-out: zone of inhibition), 2 to 5 mm; in test [13] it was over 10 mm; in test [14] it was 2 to 5 mm.
